Consider 1 molecule from article PMC12866838, “Targeting G3BP1 Condensate Topology Promotes Stress Granule Assembly via m^6A‐IGF2BP1 for Ischemic Stroke Rescue” (Advanced Science, 2025).

By Kd is commonly meant the free concentration of one partner at which half of the binding sites on the other are occupied at equilibrium, for simple one-to-one binding.

This assay concerns the target T1, G3BP1^335–466 (RRM and IDR3 domains) (Homo sapiens, UniProt Q13283).
T1 construct: RRM + IDR3, residues 335-466, N-terminal GST removed by thrombin, E. coli BL21(DE3)
Description: SPR (Biacore T200, protein on CM5 chip). The class given is binding.

Where only a bound is given, the exact number is not on record here.

T1 sequence (Q13283 335-466): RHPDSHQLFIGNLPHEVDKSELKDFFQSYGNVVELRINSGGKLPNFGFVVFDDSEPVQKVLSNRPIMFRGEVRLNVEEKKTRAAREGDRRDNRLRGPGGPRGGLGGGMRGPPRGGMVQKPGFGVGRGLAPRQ

As to `COc1ccc(-c2oc3c(CC=C(C)C)c(O[C@@H]4O[C@H](CO)[C@@H](O)[C@H](O)[C@H]4O)cc(O)c3c(=O)c2O[C@@H]2O[C@@H](C)[C@H](O)[C@@H](O)[C@H]2O)cc1` [icariin], the dissociation constant (Kd) was over 100 µM.
